{
  "source": "the kinase profiling compilation of Christmann-Franck et al. (2016)",
  "assay_in_all_cases": "KINOMEscan competition binding",
  "details_in_all_cases": "compound 10.0 µM",
  "key": {"[1]": {"test_system": "ABL1 (human), P00519 [E255K]", "sequence (P00519 whole entry E255K, looked up)": "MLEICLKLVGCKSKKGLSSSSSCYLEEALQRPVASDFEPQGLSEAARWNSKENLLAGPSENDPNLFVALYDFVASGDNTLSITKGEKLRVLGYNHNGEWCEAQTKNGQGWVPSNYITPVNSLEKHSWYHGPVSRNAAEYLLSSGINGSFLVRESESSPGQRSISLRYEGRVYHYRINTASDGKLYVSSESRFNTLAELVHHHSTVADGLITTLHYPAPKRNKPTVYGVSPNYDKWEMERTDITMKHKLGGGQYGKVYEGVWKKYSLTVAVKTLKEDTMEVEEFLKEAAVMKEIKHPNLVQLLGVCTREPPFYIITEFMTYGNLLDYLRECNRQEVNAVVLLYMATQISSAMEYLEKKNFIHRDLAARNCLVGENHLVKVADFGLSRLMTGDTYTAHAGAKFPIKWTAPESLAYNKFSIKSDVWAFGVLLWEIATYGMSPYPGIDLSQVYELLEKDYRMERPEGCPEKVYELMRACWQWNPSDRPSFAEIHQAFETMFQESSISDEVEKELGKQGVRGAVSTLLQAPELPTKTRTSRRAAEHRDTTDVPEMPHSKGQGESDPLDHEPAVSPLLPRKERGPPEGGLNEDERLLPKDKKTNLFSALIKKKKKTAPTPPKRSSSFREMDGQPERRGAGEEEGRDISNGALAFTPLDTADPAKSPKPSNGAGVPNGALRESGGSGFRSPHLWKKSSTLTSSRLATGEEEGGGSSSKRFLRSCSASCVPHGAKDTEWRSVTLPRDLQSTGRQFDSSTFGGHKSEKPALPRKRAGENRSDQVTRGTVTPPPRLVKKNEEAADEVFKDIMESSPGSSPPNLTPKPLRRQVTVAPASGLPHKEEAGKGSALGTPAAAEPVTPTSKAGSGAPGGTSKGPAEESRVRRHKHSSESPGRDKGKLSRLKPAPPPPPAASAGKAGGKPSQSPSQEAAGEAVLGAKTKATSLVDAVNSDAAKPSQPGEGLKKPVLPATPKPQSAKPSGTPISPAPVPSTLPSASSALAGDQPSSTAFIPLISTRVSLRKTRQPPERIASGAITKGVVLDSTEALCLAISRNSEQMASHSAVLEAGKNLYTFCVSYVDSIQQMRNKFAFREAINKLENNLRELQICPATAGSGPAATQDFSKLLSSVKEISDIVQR"}, "ACVR2B (human)": {"biological_target": "ACVR2B (human) (UniProt Q13705)"}, "ADCK3 (human)": {"biological_target": "ADCK3 (human) (UniProt Q8NI60)"}, "AKT2 (human)": {"biological_target": "AKT2 (human) (UniProt P31751)"}, "ALK (human)": {"biological_target": "ALK (human) (UniProt Q9UM73)", "sequence (Q9UM73 whole entry, looked up)": "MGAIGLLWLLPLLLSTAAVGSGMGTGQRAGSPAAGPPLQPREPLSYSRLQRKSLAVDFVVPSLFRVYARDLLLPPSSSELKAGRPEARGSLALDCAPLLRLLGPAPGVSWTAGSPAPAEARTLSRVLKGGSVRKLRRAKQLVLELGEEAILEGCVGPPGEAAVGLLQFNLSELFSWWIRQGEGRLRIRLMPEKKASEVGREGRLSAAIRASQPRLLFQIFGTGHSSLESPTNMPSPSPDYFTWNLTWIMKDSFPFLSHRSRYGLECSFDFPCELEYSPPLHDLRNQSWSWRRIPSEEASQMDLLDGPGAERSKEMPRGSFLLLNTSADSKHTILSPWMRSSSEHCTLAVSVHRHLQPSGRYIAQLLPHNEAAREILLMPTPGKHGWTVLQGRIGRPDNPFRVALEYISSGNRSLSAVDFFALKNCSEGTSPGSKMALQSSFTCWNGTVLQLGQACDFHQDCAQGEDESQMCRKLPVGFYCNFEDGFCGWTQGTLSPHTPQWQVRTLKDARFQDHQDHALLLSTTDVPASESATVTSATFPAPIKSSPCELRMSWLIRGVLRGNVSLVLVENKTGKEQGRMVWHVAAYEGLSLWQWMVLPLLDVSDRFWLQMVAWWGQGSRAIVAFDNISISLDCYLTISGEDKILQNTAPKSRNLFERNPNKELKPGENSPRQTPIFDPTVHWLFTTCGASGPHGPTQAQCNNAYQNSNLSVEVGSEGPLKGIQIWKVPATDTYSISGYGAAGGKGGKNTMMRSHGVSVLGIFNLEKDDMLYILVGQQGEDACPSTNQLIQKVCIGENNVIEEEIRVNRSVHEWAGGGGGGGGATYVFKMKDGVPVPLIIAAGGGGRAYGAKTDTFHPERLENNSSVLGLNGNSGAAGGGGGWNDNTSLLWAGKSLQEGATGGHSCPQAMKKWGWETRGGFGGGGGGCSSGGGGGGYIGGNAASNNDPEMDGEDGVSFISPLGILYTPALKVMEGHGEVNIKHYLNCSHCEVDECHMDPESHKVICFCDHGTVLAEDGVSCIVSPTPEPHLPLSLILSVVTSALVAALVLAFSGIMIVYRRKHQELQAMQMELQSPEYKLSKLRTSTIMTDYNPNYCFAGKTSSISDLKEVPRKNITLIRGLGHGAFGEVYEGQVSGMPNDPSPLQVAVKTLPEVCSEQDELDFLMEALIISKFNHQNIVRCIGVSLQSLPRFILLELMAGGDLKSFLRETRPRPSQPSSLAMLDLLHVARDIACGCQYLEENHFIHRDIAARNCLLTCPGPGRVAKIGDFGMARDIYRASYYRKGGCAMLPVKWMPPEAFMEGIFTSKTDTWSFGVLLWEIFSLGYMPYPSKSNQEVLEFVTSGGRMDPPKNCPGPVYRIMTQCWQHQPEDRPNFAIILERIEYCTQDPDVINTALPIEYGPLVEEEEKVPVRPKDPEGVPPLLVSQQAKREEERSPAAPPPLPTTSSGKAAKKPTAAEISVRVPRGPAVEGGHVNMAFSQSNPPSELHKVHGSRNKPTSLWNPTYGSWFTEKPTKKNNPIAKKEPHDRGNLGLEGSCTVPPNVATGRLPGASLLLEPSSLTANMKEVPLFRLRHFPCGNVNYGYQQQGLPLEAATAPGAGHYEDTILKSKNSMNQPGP"}, "CAMK1D (human)": {"biological_target": "CAMK1D (human) (UniProt Q8IU85)"}, "CAMK2A (human)": {"biological_target": "CAMK2A (human) (UniProt Q9UQM7)"}, "CAMKK2 (human)": {"biological_target": "CAMKK2 (human) (UniProt Q96RR4)"}, "CDK18 (human)": {"biological_target": "CDK18 (human) (UniProt Q07002)"}, "EGFR (human)": {"biological_target": "EGFR (human) (UniProt P00533)"}, "[2]": {"test_system": "EIF2AK4 KD2 (human), Q9P2K8 [S808G]"}, "EPHA7 (human)": {"biological_target": "EPHA7 (human) (UniProt Q15375)"}, "FES (human)": {"biological_target": "FES (human) (UniProt P07332)", "sequence (P07332 whole entry, looked up)": "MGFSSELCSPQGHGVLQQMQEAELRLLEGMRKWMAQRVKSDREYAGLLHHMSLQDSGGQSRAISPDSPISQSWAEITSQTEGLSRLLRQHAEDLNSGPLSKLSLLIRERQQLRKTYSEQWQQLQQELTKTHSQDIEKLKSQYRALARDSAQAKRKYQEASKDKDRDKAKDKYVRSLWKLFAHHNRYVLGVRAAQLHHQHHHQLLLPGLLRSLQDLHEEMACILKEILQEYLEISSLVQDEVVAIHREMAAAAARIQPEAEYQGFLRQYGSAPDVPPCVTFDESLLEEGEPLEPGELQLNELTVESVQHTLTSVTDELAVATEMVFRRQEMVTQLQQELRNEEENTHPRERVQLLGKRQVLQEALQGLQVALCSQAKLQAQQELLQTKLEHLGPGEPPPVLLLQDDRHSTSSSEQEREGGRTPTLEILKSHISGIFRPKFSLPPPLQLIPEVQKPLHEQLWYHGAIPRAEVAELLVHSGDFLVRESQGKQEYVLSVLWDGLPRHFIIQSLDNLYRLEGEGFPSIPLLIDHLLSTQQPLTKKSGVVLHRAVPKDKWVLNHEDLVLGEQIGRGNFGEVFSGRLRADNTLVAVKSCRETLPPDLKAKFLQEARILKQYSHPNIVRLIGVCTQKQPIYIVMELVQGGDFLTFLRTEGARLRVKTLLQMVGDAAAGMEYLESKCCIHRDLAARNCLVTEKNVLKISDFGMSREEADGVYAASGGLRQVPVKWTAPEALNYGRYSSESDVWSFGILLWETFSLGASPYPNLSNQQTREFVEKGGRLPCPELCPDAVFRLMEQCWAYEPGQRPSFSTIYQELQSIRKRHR"}, "FLT4 (human)": {"biological_target": "FLT4 (human) (UniProt P35916)"}, "FRK (human)": {"biological_target": "FRK (human) (UniProt P42685)"}, "GRK7 (human)": {"biological_target": "GRK7 (human) (UniProt Q8WTQ7)"}, "[3]": {"biological_target": "JAK1 JH2 pseudokinase (human) (UniProt P23458)"}, "[4]": {"test_system": "LRRK2 (human), Q5S007 [G2019S]"}, "MAP2K5 (human)": {"biological_target": "MAP2K5 (human) (UniProt Q13163)"}, "MAP3K15 (human)": {"biological_target": "MAP3K15 (human) (UniProt Q6ZN16)"}, "MAP3K4 (human)": {"biological_target": "MAP3K4 (human) (UniProt Q9Y6R4)"}, "MAPK3 (human)": {"biological_target": "MAPK3 (human) (UniProt P27361)"}, "MAPKAPK2 (human)": {"biological_target": "MAPKAPK2 (human) (UniProt P49137)"}, "MARK1 (human)": {"biological_target": "MARK1 (human) (UniProt Q9P0L2)"}, "MATK (human)": {"biological_target": "MATK (human) (UniProt P42679)"}, "MYLK (human)": {"biological_target": "MYLK (human) (UniProt Q15746)"}, "PAK6 (human)": {"biological_target": "PAK6 (human) (UniProt Q9NQU5)"}, "PAK7 (human)": {"biological_target": "PAK7 (human) (UniProt Q9P286)"}, "PIK3C2G (human)": {"biological_target": "PIK3C2G (human) (UniProt O75747)"}, "PTK2B (human)": {"biological_target": "PTK2B (human) (UniProt Q14289)"}, "RET (human)": {"biological_target": "RET (human) (UniProt P07949)"}, "RIOK2 (human)": {"biological_target": "RIOK2 (human) (UniProt Q9BVS4)", "sequence (Q9BVS4 whole entry, looked up)": "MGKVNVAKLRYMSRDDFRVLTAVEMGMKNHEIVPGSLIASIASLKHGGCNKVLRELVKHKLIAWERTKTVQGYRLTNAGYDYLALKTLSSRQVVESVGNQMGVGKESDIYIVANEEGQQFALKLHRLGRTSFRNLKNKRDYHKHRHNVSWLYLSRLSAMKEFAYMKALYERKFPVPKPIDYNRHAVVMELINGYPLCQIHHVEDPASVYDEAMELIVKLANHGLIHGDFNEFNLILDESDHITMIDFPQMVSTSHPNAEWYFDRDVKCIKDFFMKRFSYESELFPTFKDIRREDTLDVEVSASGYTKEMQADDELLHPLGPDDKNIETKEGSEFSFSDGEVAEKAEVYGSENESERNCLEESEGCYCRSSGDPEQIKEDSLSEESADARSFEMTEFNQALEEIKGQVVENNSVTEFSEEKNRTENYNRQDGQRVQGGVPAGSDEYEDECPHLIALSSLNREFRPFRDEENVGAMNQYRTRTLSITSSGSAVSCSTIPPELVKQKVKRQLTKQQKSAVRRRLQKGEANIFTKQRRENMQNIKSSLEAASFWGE"}, "RPS6KA2 KD1 (human)": {"biological_target": "RPS6KA2 KD1 (human) (UniProt Q15349)"}, "SLK (human)": {"biological_target": "SLK (human) (UniProt Q9H2G2)"}, "SNRK (human)": {"biological_target": "SNRK (human) (UniProt Q9NRH2)"}, "SRPK2 (human)": {"biological_target": "SRPK2 (human) (UniProt P78362)"}, "STK16 (human)": {"biological_target": "STK16 (human) (UniProt O75716)", "sequence (O75716 whole entry, looked up)": "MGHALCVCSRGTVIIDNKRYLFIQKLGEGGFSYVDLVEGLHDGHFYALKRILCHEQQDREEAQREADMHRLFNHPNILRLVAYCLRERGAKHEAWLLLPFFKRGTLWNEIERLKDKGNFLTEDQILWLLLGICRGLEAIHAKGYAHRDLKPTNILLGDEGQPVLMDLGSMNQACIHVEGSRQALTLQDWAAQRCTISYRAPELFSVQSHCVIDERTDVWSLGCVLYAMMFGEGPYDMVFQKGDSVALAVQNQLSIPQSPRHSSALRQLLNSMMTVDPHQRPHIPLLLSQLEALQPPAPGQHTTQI"}, "TEK (human)": {"biological_target": "TEK (human) (UniProt Q02763)"}, "TIE1 (human)": {"biological_target": "TIE1 (human) (UniProt P35590)"}, "TSSK1B (human)": {"biological_target": "TSSK1B (human) (UniProt Q9BXA7)"}, "TTK (human)": {"biological_target": "TTK (human) (UniProt P33981)"}, "WEE1 (human)": {"biological_target": "WEE1 (human) (UniProt P30291)", "sequence (P30291 whole entry, looked up)": "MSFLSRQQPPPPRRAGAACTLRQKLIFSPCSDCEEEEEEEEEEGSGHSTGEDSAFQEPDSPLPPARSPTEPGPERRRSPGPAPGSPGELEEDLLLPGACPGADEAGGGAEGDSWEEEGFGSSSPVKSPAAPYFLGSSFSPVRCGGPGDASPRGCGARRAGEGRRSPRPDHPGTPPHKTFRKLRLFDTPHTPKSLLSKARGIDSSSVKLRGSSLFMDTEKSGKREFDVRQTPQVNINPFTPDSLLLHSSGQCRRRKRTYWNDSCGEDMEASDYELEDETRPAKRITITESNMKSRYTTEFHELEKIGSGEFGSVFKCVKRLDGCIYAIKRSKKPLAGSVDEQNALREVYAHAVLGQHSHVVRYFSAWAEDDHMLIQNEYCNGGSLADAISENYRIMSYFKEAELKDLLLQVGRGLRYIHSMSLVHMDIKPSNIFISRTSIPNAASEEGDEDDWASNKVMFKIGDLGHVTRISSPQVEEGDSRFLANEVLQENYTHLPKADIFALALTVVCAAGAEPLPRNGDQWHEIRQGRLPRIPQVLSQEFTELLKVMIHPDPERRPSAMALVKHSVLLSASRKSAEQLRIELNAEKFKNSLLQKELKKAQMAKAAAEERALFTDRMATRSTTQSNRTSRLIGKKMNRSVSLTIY"}},
  "data": [
    {"smiles": "Cc1cc([C@@H](C)Nc2ccccc2C(=O)O)c2nc(N3CCOCC3)cc(=O)n2c1", "values": [
      {"measurement": "kinase still bound, per cent of control", "setting": "[1]", "value": 100, "unit": "%"},
      {"measurement": "kinase still bound, per cent of control", "setting": "ACVR2B (human)", "value": 100, "unit": "%"},
      {"measurement": "kinase still bound, per cent of control", "setting": "ADCK3 (human)", "value": 70, "unit": "%"},
      {"measurement": "kinase still bound, per cent of control", "setting": "AKT2 (human)", "value": 100, "unit": "%"},
      {"measurement": "kinase still bound, per cent of control", "setting": "ALK (human)", "value": 100, "unit": "%"},
      {"measurement": "kinase still bound, per cent of control", "setting": "CAMK1D (human)", "value": 93, "unit": "%"},
      {"measurement": "kinase still bound, per cent of control", "setting": "CAMK2A (human)", "value": 66, "unit": "%"},
      {"measurement": "kinase still bound, per cent of control", "setting": "CAMKK2 (human)", "value": 72, "unit": "%"},
      {"measurement": "kinase still bound, per cent of control", "setting": "CDK18 (human)", "value": 83, "unit": "%"},
      {"measurement": "kinase still bound, per cent of control", "setting": "EGFR (human)", "value": 100, "unit": "%"},
      {"measurement": "kinase still bound, per cent of control", "setting": "[2]", "value": 78, "unit": "%"},
      {"measurement": "kinase still bound, per cent of control", "setting": "EPHA7 (human)", "value": 87, "unit": "%"},
      {"measurement": "kinase still bound, per cent of control", "setting": "FES (human)", "value": 100, "unit": "%"},
      {"measurement": "kinase still bound, per cent of control", "setting": "FLT4 (human)", "value": 100, "unit": "%"},
      {"measurement": "kinase still bound, per cent of control", "setting": "FRK (human)", "value": 47, "unit": "%"},
      {"measurement": "kinase still bound, per cent of control", "setting": "GRK7 (human)", "value": 100, "unit": "%"},
      {"measurement": "kinase still bound, per cent of control", "setting": "[3]", "value": 100, "unit": "%"},
      {"measurement": "kinase still bound, per cent of control", "setting": "[4]", "value": 90, "unit": "%"},
      {"measurement": "kinase still bound, per cent of control", "setting": "MAP2K5 (human)", "value": 100, "unit": "%"},
      {"measurement": "kinase still bound, per cent of control", "setting": "MAP3K15 (human)", "value": 55, "unit": "%"},
      {"measurement": "kinase still bound, per cent of control", "setting": "MAP3K4 (human)", "value": 100, "unit": "%"},
      {"measurement": "kinase still bound, per cent of control", "setting": "MAPK3 (human)", "value": 94, "unit": "%"},
      {"measurement": "kinase still bound, per cent of control", "setting": "MAPKAPK2 (human)", "value": 95, "unit": "%"},
      {"measurement": "kinase still bound, per cent of control", "setting": "MARK1 (human)", "value": 90, "unit": "%"},
      {"measurement": "kinase still bound, per cent of control", "setting": "MATK (human)", "value": 57, "unit": "%"},
      {"measurement": "kinase still bound, per cent of control", "setting": "MYLK (human)", "value": 43, "unit": "%"},
      {"measurement": "kinase still bound, per cent of control", "setting": "PAK6 (human)", "value": 96, "unit": "%"},
      {"measurement": "kinase still bound, per cent of control", "setting": "PAK7 (human)", "value": 92, "unit": "%"},
      {"measurement": "kinase still bound, per cent of control", "setting": "PIK3C2G (human)", "value": 16, "unit": "%"},
      {"measurement": "kinase still bound, per cent of control", "setting": "PTK2B (human)", "value": 90, "unit": "%"},
      {"measurement": "kinase still bound, per cent of control", "setting": "RET (human)", "value": 96, "unit": "%"},
      {"measurement": "kinase still bound, per cent of control", "setting": "RIOK2 (human)", "value": 35, "unit": "%"},
      {"measurement": "kinase still bound, per cent of control", "setting": "RPS6KA2 KD1 (human)", "value": 100, "unit": "%"},
      {"measurement": "kinase still bound, per cent of control", "setting": "SLK (human)", "value": 85, "unit": "%"},
      {"measurement": "kinase still bound, per cent of control", "setting": "SNRK (human)", "value": 54, "unit": "%"},
      {"measurement": "kinase still bound, per cent of control", "setting": "SRPK2 (human)", "value": 88, "unit": "%"},
      {"measurement": "kinase still bound, per cent of control", "setting": "STK16 (human)", "value": 99, "unit": "%"},
      {"measurement": "kinase still bound, per cent of control", "setting": "TEK (human)", "value": 94, "unit": "%"},
      {"measurement": "kinase still bound, per cent of control", "setting": "TIE1 (human)", "value": 100, "unit": "%"},
      {"measurement": "kinase still bound, per cent of control", "setting": "TSSK1B (human)", "value": 79, "unit": "%"},
      {"measurement": "kinase still bound, per cent of control", "setting": "TTK (human)", "value": 88, "unit": "%"},
      {"measurement": "kinase still bound, per cent of control", "setting": "WEE1 (human)", "value": 88, "unit": "%"}
    ]}
  ]
}
